# Assay results published in patent publication US4816447A, “Anti-viral guanine compounds” (priority 1984, dated 1989).
# Read-outs that look alike come from different tables or passages of the source.
# Assays:
# Herpes simplex virus = experiment: Plaque inhibition, Herpes simplex virus on MRC5 cells (Table V); type: cell-based, Herpes simplex virus; MRC5 (human diploid lung) cells; conditions: MRC5, read-out: ED50, concentration required for 50% plaque inhibition
# Recombinant 6-34 = experiment: Drug sensitivity of HSV-1/HSV-2 intertypic Recombinant 6-34; conditions: read-out: ED50
# HSV-1 PAA ®1 = experiment: microbe, parasite or virus in culture; conditions: Human alphaherpesvirus 1, read-out: ED50
# Recombinant 6-26 = experiment: Drug sensitivity of HSV-1/HSV-2 intertypic Recombinant 6-26; conditions: read-out: ED50
# [1] = Comparative solubilities in pH 7.2 buffer at 25°; type: physicochemical; conditions: qualitative statement
# Description: Comparative Solubilities in pH 7.2 Buffer at 25°
# Solubilities were determined by suspending an excess amount of the compound in approximately 0.15 molar phosphate buffer (pH 7.2) and shaking overnight in a water bath at 25° to give a saturated solution. The concentration of the compound in the filtered solution was calculated on the basis of spectrophotometric measurements, i.e. comparison of the ultraviolet absorbance at the λmax for the saturated solution with the absorbance value observed for a known concentration of the compound.
# HSV-2 = experiment: Vaginal HSV-2 infection in mice, oral treatment (Table VI); type: in vivo, HSV-2; ICR/Ha mice
# Vaccinia = experiment: microbe, parasite or virus in culture; type: cell-based, vaccinia; MRC5 (human diploid lung) cells
# [2] = system: HSV-1 wild type Strain 17; experiment: Drug sensitivity of HSV-1 wild type Strain 17; conditions: Human alphaherpesvirus 1, read-out: ED50
# HSV-1 [3] = experiment: Corneal HSV-1 infection of rabbit eyes, topical treatment (Table VI); type: in vivo, HSV-1; rabbits
# Recombinant 6-30 = experiment: Drug sensitivity of HSV-1/HSV-2 intertypic Recombinant 6-30; conditions: read-out: ED50
# HSV-1 [4] = experiment: Intraperitoneal HSV-1 infection in mice, oral treatment (Table VI); type: in vivo, HSV-1; ICR/Ha mice
# [5] = system: human cytomegalovirus, strain AD169; experiment: Plaque inhibition, cytomegalovirus on MRC5 cells (Table V); type: cell-based, human cytomegalovirus; MRC5 (human diploid lung) cells
# Recombinant 6-19 = experiment: Drug sensitivity of HSV-1/HSV-2 intertypic Recombinant 6-19; conditions: read-out: ED50
# [6] = system: Varicella-Zoster virus, strain KMcC; experiment: Plaque inhibition, Varicella Zoster virus on MRC5 cells (Table V); type: cell-based, Varicella-Zoster virus; MRC5 (human diploid lung) cells
# HSV-1 [7] = experiment: In vitro activity against HSV-1 with and without added thymidine; type: cell-based; conditions: read-out: ED50 (the source's name)
# HSV-2 TS6 = conditions: HSV-2 Ts6
smiles,measurement,setting,value
"Nc1nc2c(ncn2COC2COP(=O)(O)OC2)c(=O)[nH]1 (centres unmarked) [Cyclic Monophosphate, Potassium 9-(1,3-dihydroxy-2-propoxymethyl)guanine cyclic monophosphate]",EC50,Herpes simplex virus,3 to 6 µg/mL
same,EC50,Recombinant 6-34,6.3 µg/mL
same,EC50,HSV-1 PAA ®1,3.2 µg/mL
same,EC50,Recombinant 6-26,1.1 µg/mL
same,solubility compared to compound of Formula II and acyclovir,[1],readily soluble
same,minimal effective dose,"HSV-2; Human alphaherpesvirus 2, vaginal infection, oral treatment, read-out: Min. Effective Dose",0.8 mg/kg/day
same,efficacy relative to acyclovir by minimum effective dose,HSV-2; vaginal,consistently more efficacious than acyclovir
same,EC50,"Vaccinia; Orthopoxvirus vaccinia, MRC5, read-out: ED50, concentration required for 50% plaque inhibition",6 to 12 µg/mL
same,inhibition of DNA virus,Vaccinia; vaccinia,inhibitory
same,EC50,[2],0.9 µg/mL
same,Min. Effective Dose,"HSV-1 [3]; corneal infection, topical treatment",1.0%
same,limiting progression and resolving corneal lesions,HSV-1 [3]; infected rabbits,equally effective
same,EC50,Recombinant 6-30,0.3 µg/mL
same,minimal effective dose,"HSV-1 [4]; Human alphaherpesvirus 1, intraperitoneal infection, oral treatment, read-out: Min. Effective Dose",0.8 to 3.1 mg/kg/day
same,efficacy relative to acyclovir by minimum effective dose,HSV-1 [4]; intraperitoneal,consistently more efficacious than acyclovir
same,antiviral efficacy in the herpes-mouse infection model relative to compound of Formula II,HSV-1 [4]; not shown in Table VI,generally equivalent
same,more active than acyclovir,[5],approximately 10 fold
same,potency relative to compound of Formula II,[5],equipotent
same,EC50,"[5]; Human betaherpesvirus 5, AD169, MRC5, read-out: ED50, concentration required for 50% plaque inhibition",0.8 µg/mL
same,EC50,Recombinant 6-19,4.7 µg/mL
same,in vitro effectiveness against Varicella Zoster virus relative to acyclovir or compound of Formula II,[6],substantially more effective
same,more active than either compound of Formula II or acyclovir,[6],approximately 10 fold
same,EC50,"[6]; Human alphaherpesvirus 3, MRC5, read-out: ED50, concentration required for 50% plaque inhibition",0.4 to 0.8 µg/mL
same,EC50,"HSV-1 [7]; Human alphaherpesvirus 1, absence of thymidine",12.5 µg/mL
same,EC50,"HSV-1 [7]; Human alphaherpesvirus 1, presence of thymidine (20 μg/ml)",25 to 50 µg/mL
same,sensitivity of HSV-2 Ts6,HSV-2 TS6,sensitive
